In US20230240297A1, “SELECTIVE HERBICIDES BASED ON SUBSTITUTED ISOXAZOLIN CARBOXAMIDES AND CYPROSULFAMIDE” (Bayer Aktiengesellschaft, priority 2020, published 2023):

Tests used:
Type in all cases: in vivo, maize
ZEAMA Abraxas = assay: Tank-mix; post-emergence, crop damage with and without safener; settings: for HER effect + SAF / HER effect: Final assessment; for HER effect: no safener
Procedure: (§1) Seeds of crops (spring wheat, TRZAS; spring barley, HORVS; maize, ZEAMA) were placed in sandy loam soil in peat pots, covered with soil and cultivated in a greenhouse under good growth conditions. Two to three weeks after sowing, the test plants were treated at the 1 to 3-leaf stage. The herbicide/safener active compound combinations according to the invention, formulated as wettable powders or emulsion concentrates, and, in parallel tests, the correspondingly formulated individual active compounds were sprayed onto the green parts of the plants in various dosages using an amount of water of 300 1/ha (converted).
(§2) The pots were returned under good growing conditions in a glasshouse and a visual assessment of herbicidal effects was made at intervals from 1 to 3 weeks after herbicide application (DAT = days after treatment). Assessment was on a percentage basis in comparison with untreated control plants (0% = no injury, 100% = complete kill).

ZEAMA Sileno [1] = assay: Seed treatment with safener; post-emergence herbicide application; design: Reduction [Difference]: scale not given here; settings: Final assessment; for Reduction [%] / Reduction [Difference]: Cyprosulfamide 0.5 g a.i./kg seed; for Reduction [Difference]: damage without safener - damage with safener; for HER effect + SAF (crop damage with safener): Cyprosulfamide seed treatment 0.5 g a.i./kg seed; for HER effect (crop damage, herbicide without safener): no safener
Procedure: For the safener seed treatment, sufficient seeds of the respective crops (spring wheat, TRZAS; spring barley, HORVS; maize, ZEAMA) were weighed into screw top glass bottles approximately twice the volume of the seeds.
The specified safeners, formulated as wettable powder (WP) were weighed out so that the specified rates (g a.i./kg seed) would be obtained, dissolved in water (1 ml water per 10 g of seeds), and added to the seeds to produce a slurry.
The bottles were capped and then placed in an overhead shaker (set at medium speed for ca. 60 minutes) so that the seeds were evenly coated with the slurry. The bottles were uncapped and the seeds were either placed on paper and dried for an interval of 3-4 hours prior to sowing, or directly sown. Seeds were placed in sandy loam soil in pots of a diameter of 7-8 cm, covered with soil, and cultivated in a greenhouse under good growth conditions.
Post-emergence application of the specified herbicides was done when the plants had reached growth stage BBCH11-13, on two sets of plants:
a) seed treatment with safener, as described above b) no safener treatment
The herbicides were formulated as WP and sprayed onto the green parts of the plants as an aqueous suspension at an equivalent water application rate of 300 1/ha, with addition of wetting agent and adjuvants (e.g. Mero, 1.5 1/ha; ammonium sulphate, 2 kg/ha)
After application, the test plants were kept in the greenhouse under good growth conditions.
Values in the table below are mean values of at least 2 replicates.

ZEAMA Sileno [2] = assay: Tank-mix; post-emergence, crop damage with and without safener; settings: for HER effect + SAF / HER effect: Final assessment; for HER effect: no safener
Procedure: as §1, §2

[3] = HER 32 g a.i./ha, cyprosulfamide 100 g a.i./ha
[4] = HER dose 32 g a.i./ha + cyprosulfamide 100 g a.i./ha tank-mix
[5] = HER 8 g a.i./ha, cyprosulfamide 50 g a.i./ha
[6] = HER dose 8 g a.i./ha + cyprosulfamide 50 g a.i./ha tank-mix
[7] = HER 2 g a.i./ha, cyprosulfamide 50 g a.i./ha
[8] = HER 2 g a.i./ha, cyprosulfamide 50 g a.i./ha, damage without safener - damage with safener
[9] = HER dose 2 g a.i./ha + cyprosulfamide 50 g a.i./ha tank-mix
[10] = HER dose 2 g a.i./ha, 0% = no injury, 100% = complete kill

Compound | Reduction [%] (ZEAMA Abraxas; [3]) | Reduction [Difference] (ZEAMA Abraxas; [3]) | HER effect + SAF (ZEAMA Abraxas; [4]) [%] | HER effect (ZEAMA Abraxas; HER dose 32 g a.i./ha) [%] | Reduction [%] (ZEAMA Sileno [1]; HER dose 8 g a.i./ha) | Reduction [Difference] (ZEAMA Sileno [1]; HER dose 8 g a.i./ha) | HER effect + SAF (crop damage with safener) (ZEAMA Sileno [1]; HER dose 8 g a.i./ha) [%] | HER effect (crop damage, herbicide without safener) (ZEAMA Sileno [1]; HER dose 8 g a.i./ha) [%] | Reduction [%] (ZEAMA Sileno [1]; HER dose 32 g a.i./ha) | Reduction [Difference] (ZEAMA Sileno [1]; HER dose 32 g a.i./ha) | HER effect + SAF (crop damage with safener) (ZEAMA Sileno [1]; HER dose 32 g a.i./ha) [%] | HER effect (crop damage, herbicide without safener) (ZEAMA Sileno [1]; HER dose 32 g a.i./ha) [%] | Reduction [%] (ZEAMA Sileno [2]; [5]) | Reduction [Difference] (ZEAMA Sileno [2]; [5]) | Reduction [%] (ZEAMA Sileno [2]; [3]) | Reduction [Difference] (ZEAMA Sileno [2]; [3]) | HER effect + SAF (ZEAMA Sileno [2]; [6]) [%] | HER effect (ZEAMA Sileno [2]; HER dose 8 g a.i./ha) [%] | HER effect + SAF (ZEAMA Sileno [2]; [4]) [%] | HER effect (ZEAMA Sileno [2]; HER dose 32 g a.i./ha) [%] | other results
CC1(C(=O)NC2C=CC(C(=O)OCCCl)C2)CC(c2cc(F)cc(F)c2)=NO1 (mixture of isomers) [Example 1.47] | 84 | 52 | 10 | 62 | – | – | – | – | – | – | – | – | – | – | – | – | – | – | – | – | –
C=CC1(C(=O)NC2CC=C(C(=O)OC)C2)CC(c2cc(F)cc(F)c2)=NO1 (mixture of isomers) [Example 1.60] | 79 | 74 | 20 | 94 | 94 | 50 | 3 | 53 | 88 | 57 | 8 | 65 | – | – | – | – | – | – | – | – | Reduction [%] (ZEAMA Abraxas; [5]): 69%; Reduction [Difference] (ZEAMA Abraxas; [5]): 38; HER effect + SAF (ZEAMA Abraxas; [6]): 17%; HER effect (ZEAMA Abraxas; HER dose 8 g a.i./ha): 55%
C=CC1(C(=O)NC2COC(C(=O)OC)C2)CC(c2cc(C)cc(F)c2)=NO1 (mixture of isomers) [Example 1.71] | 67 | 61 | 30 | 91 | – | – | – | – | 91 | 29 | 3 | 32 | – | – | – | – | – | – | – | – | Reduction [%] (ZEAMA Abraxas; [5]): 71%; Reduction [Difference] (ZEAMA Abraxas; [5]): 41; HER effect + SAF (ZEAMA Abraxas; [6]): 17%; HER effect (ZEAMA Abraxas; HER dose 8 g a.i./ha): 58%
C=CC1(C(=O)NC2COC(C(=O)OCc3ccc(OC)cc3)C2)CC(c2cc(C)cc(F)c2)=NO1 (mixture of isomers) [Example 1.86] | – | – | – | – | – | – | – | – | – | – | – | – | – | – | – | – | – | – | – | – | Reduction [%] (ZEAMA Abraxas; [5]): 84%; Reduction [Difference] (ZEAMA Abraxas; [5]): 27; HER effect + SAF (ZEAMA Abraxas; [6]): 5%; HER effect (ZEAMA Abraxas; HER dose 8 g a.i./ha): 32%
COC(=O)C1C=CC(NC(=O)C2(C(F)(F)F)CC(c3cccc(F)c3)=NO2)C1 (centres unmarked) [Example 1.18] | – | – | – | – | 89 | 84 | 10 | 94 | 79 | 77 | 20 | 97 | 66 | 62 | 72 | 70 | 32 | 94 | 27 | 97 | –
COC(=O)C1=CC(NC(=O)C2(C)CC(c3cc(F)cc(F)c3)=NO2)CC1 (centres unmarked) [Example 1.63] | – | – | – | – | 85 | 72 | 13 | 85 | 85 | 75 | 13 | 88 | 73 | 62 | 52 | 46 | 23 | 85 | 42 | 88 | Reduction [%] (ZEAMA Sileno [2]; [7]): 87%; Reduction [Difference] (ZEAMA Sileno [2]; [8]): 20; HER effect + SAF (ZEAMA Sileno [2]; [9]): 3%; HER effect (ZEAMA Sileno [2]; [10]): 23%; Reduction [%] (ZEAMA Sileno [1]; HER dose 2 g a.i./ha): 100%; Reduction [Difference] (ZEAMA Sileno [1]; HER dose 2 g a.i./ha): 23; HER effect + SAF (crop damage with safener) (ZEAMA Sileno [1]; HER dose 2 g a.i./ha): 0%; HER effect (crop damage, herbicide without safener) (ZEAMA Sileno [1]; HER dose 2 g a.i./ha): 23%
C=CC1(C(=O)NC2COC(C(=O)OC)C2)CC(c2cc(F)cc(F)c2)=NO1 (centres unmarked) [Example 1.69] | – | – | – | – | 82 | 75 | 17 | 92 | 75 | 70 | 23 | 93 | 76 | 70 | 73 | 68 | 22 | 92 | 25 | 93 | –
C=CC1(C(=O)NC2COC(C(=O)OC)C2)CC(c2cc(F)cc(F)c2)=NO1 (centres unmarked) [Example 1.70] | – | – | – | – | 77 | 75 | 22 | 97 | 67 | 66 | 32 | 98 | 21 | 20 | 41 | 40 | 77 | 97 | 58 | 98 | Reduction [%] (ZEAMA Sileno [2]; [7]): 77%; Reduction [Difference] (ZEAMA Sileno [2]; [8]): 68; HER effect + SAF (ZEAMA Sileno [2]; [9]): 20%; HER effect (ZEAMA Sileno [2]; [10]): 88%; Reduction [%] (ZEAMA Sileno [1]; HER dose 2 g a.i./ha): 80%; Reduction [Difference] (ZEAMA Sileno [1]; HER dose 2 g a.i./ha): 70; HER effect + SAF (crop damage with safener) (ZEAMA Sileno [1]; HER dose 2 g a.i./ha): 18%; HER effect (crop damage, herbicide without safener) (ZEAMA Sileno [1]; HER dose 2 g a.i./ha): 88%
